Measurements reported in patent publication US20120053185A1, “METHOD TO TREAT MELANOMA IN BRAF INHIBITOR-RESISTANT SUBJECTS” (CollabRx Inc., priority 2010, published 2012).

Experiments:
patient's tumor = assay: Case report: patient who became resistant to successive therapies (Example 1); assay type: in vivo, human; conditions: single patient
Description: A person had been on multiple lines of therapy, with a response to each, but then becoming resistant. The treatments were as follows:
In July, ipilimumab (a therapy directed at CTLA-4, an inhibitor of the immune system) was started. Sutent® was then administered in addition to the ipilimumab. […] As the patient, however, could not eat, they discontinued the Sutent® and died a few days after this discontinuation.

metastatic melanoma = conditions: patients with the mutation, cited from earlier work
[1] = Sutent given in addition to ipilimumab, within a few days

Compound | patient's tumor shrank (patient's tumor; first scan after treatment started January 2010) | result of second scan (patient's tumor; second scan April 2010) | response rate (metastatic melanoma; one study) | durability of responses (metastatic melanoma) | abdomen size (patient's tumor; [1]) | bowel movements (patient's tumor; [1])
CCCS(=O)(=O)Nc1ccc(F)c(C(=O)c2c[nH]c3ncc(-c4ccc(Cl)cc4)cc23)c1F [Plexxikon 4032] | 75% | recurrence | 70% | generally does not produce durable responses |  | 
CCN(CC)CCNC(=O)c1c(C)[nH]c(/C=C2\C(=O)Nc3ccc(F)cc32)c1C [Sutent®, 5-(5-fluoro-2-oxo-1,2-dihydroindo1-3-ylidenemethyl)-2,4-dimethyl-1H-pyrrole-3-carboxylic acid (2-diethylaminoethyl)amide] |  |  |  |  | abdomen shrank to normal size | normal bowel movements resumed
